Measurements taken from PubChem BioAssay (NCI).
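Where inhibition never reached the appropriate level, the endpoint shown equals the highest concentration tested. Otherwise, values were interpolated linearly from a five-concentration, 48-hour dose response in 96-well plates. GI50 marks 50% less growth. TGI: total growth inhibition.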

Experiments:
Experiment in all cases: inhibition of tumour cell growth, NCI panel, 48 h
COLO 205 colon = system: COLO 205 colon
SF-295 CNS = system: SF-295 CNS
K-562 leukemia = system: K-562 leukemia
HL-60(TB) leukemia = system: HL-60(TB) leukemia
NCI-H522 lung = system: NCI-H522 lung
NCI-H460 lung = system: NCI-H460 lung
RPMI-8226 leukemia = system: RPMI-8226 leukemia
MOLT-4 leukemia = system: MOLT-4 leukemia

Compound: CCOC(=O)c1nc(-c2ccccc2)oc1OCC
- TGI (COLO 205 colon): > 100 µM
- TGI (SF-295 CNS): > 100 µM
- TGI (K-562 leukemia): > 100 µM
- TGI (HL-60(TB) leukemia): > 100 µM
- TGI (NCI-H522 lung): > 100 µM
- TGI (NCI-H460 lung): > 100 µM
- TGI (RPMI-8226 leukemia): > 100 µM
- TGI (MOLT-4 leukemia): > 100 µM

Compound: O=C1c2ccccc2CC1C1(O)C(=O)Nc2ccccc21 (stereo not drawn)
- TGI (COLO 205 colon): > 100 µM
- TGI (SF-295 CNS): > 100 µM
- TGI (K-562 leukemia): > 100 µM
- TGI (HL-60(TB) leukemia): > 100 µM
- TGI (NCI-H522 lung): > 100 µM
- TGI (NCI-H460 lung): > 100 µM
- TGI (RPMI-8226 leukemia): > 100 µM
- TGI (MOLT-4 leukemia): > 100 µM

Compound: N.N.NCCCCCCN.O=C([O-])CC(=O)[O-].O=C([O-])CC(=O)[O-].[Pt+4].[Pt+4]
- GI50 (COLO 205 colon): 27.7 µM
- TGI (COLO 205 colon): > 100 µM
- GI50 (SF-295 CNS): > 71.6 µM
- TGI (SF-295 CNS): > 100 µM
- GI50 (K-562 leukemia): > 86.3 µM
- TGI (K-562 leukemia): > 100 µM
- GI50 (HL-60(TB) leukemia): 23.7 µM
- TGI (HL-60(TB) leukemia): > 100 µM
- GI50 (NCI-H522 lung): 29 µM
- TGI (NCI-H522 lung): > 100 µM
- GI50 (NCI-H460 lung): 6.59 µM
- TGI (NCI-H460 lung): > 100 µM
- GI50 (RPMI-8226 leukemia): > 100 µM
- TGI (RPMI-8226 leukemia): > 100 µM
- GI50 (MOLT-4 leukemia): 5.2 µM
- TGI (MOLT-4 leukemia): > 100 µM

Compound: CCC1CCc2c(OC)ccc(OCC(=O)O)c2C1=O (stereo not drawn)
- TGI (COLO 205 colon): > 100 µM
- TGI (SF-295 CNS): > 100 µM
- TGI (K-562 leukemia): > 100 µM
- TGI (HL-60(TB) leukemia): > 100 µM
- TGI (NCI-H522 lung): > 100 µM
- TGI (RPMI-8226 leukemia): > 100 µM
- TGI (MOLT-4 leukemia): > 100 µM

Compound: C=CCNC(=O)NCCCC(NC(C)=O)C(=O)NCc1ccccc1 (stereo not drawn)
- TGI (COLO 205 colon): > 100 µM
- TGI (SF-295 CNS): > 100 µM
- TGI (K-562 leukemia): > 100 µM
- TGI (HL-60(TB) leukemia): > 100 µM
- TGI (NCI-H522 lung): > 100 µM
- TGI (NCI-H460 lung): > 100 µM
- TGI (RPMI-8226 leukemia): > 100 µM
- TGI (MOLT-4 leukemia): > 100 µM

Compound: CC1CCC(C(C)C)C(O[C@@H]2OC(=O)C[C@@H]2Sc2ccccc2)C1 (stereo partly drawn)
- TGI (COLO 205 colon): 36.8 µM
- TGI (SF-295 CNS): 54.6 µM
- TGI (K-562 leukemia): 42.6 µM
- TGI (HL-60(TB) leukemia): 43.6 µM
- TGI (NCI-H460 lung): 69.5 µM
- TGI (RPMI-8226 leukemia): 34.7 µM
- TGI (MOLT-4 leukemia): 32 µM

Compound: C=C1CCC2[C@@H](CCC3[C@]2(C)CCC[C@]3(C)C(=O)OC)C1CCO (stereo partly drawn)
- TGI (COLO 205 colon): 27.9 µM
- TGI (SF-295 CNS): 30.9 µM
- TGI (K-562 leukemia): 26.1 µM
- TGI (HL-60(TB) leukemia): 9.36 µM
- TGI (NCI-H522 lung): 21.6 µM
- TGI (NCI-H460 lung): 37.2 µM
- TGI (RPMI-8226 leukemia): 17 µM
- TGI (MOLT-4 leukemia): 17.9 µM

Compound: C=C1CCc2occ(C)c2C2C1C1=C(CC(C)C1=O)C1OC12C (stereo not drawn)
- TGI (COLO 205 colon): > 100 µM
- TGI (SF-295 CNS): > 100 µM
- TGI (K-562 leukemia): > 100 µM
- TGI (NCI-H522 lung): > 100 µM
- TGI (NCI-H460 lung): > 100 µM
- TGI (MOLT-4 leukemia): > 100 µM

Compound: Cc1ccc(Sc2ccc(C)cc2[N+](=O)[O-])c([N+](=O)[O-])c1
- TGI (COLO 205 colon): > 100 µM
- TGI (SF-295 CNS): > 100 µM
- TGI (K-562 leukemia): > 100 µM
- TGI (HL-60(TB) leukemia): > 100 µM
- TGI (NCI-H522 lung): > 100 µM
- TGI (NCI-H460 lung): > 100 µM
- TGI (RPMI-8226 leukemia): > 100 µM
- TGI (MOLT-4 leukemia): > 100 µM

Compound: COC(=O)C1=C(C(=O)OC)SC(=C(N=Nc2ccccc2)c2ccccc2)S1
- TGI (COLO 205 colon): > 100 µM
- TGI (SF-295 CNS): > 100 µM
- TGI (K-562 leukemia): > 100 µM
- TGI (HL-60(TB) leukemia): > 100 µM
- TGI (NCI-H522 lung): > 100 µM
- TGI (NCI-H460 lung): > 100 µM
- TGI (RPMI-8226 leukemia): > 100 µM
- TGI (MOLT-4 leukemia): > 100 µM

Compound: CCN(CC)CC(C(=O)Nc1c(C)cccc1C)/C(C)=N\NC(=O)c1ccncc1 (stereo not drawn)
- TGI (COLO 205 colon): > 100 µM
- TGI (SF-295 CNS): > 100 µM
- TGI (NCI-H522 lung): > 100 µM
- TGI (NCI-H460 lung): > 100 µM
- TGI (MOLT-4 leukemia): > 100 µM

Compound: CC(=O)Nc1ccc(/C=C/C(=O)c2sc(-c3nc(C)c(C(=O)/C=C/c4ccc(NC(C)=O)cc4)s3)nc2C)cc1
- TGI (COLO 205 colon): > 100 µM
- TGI (SF-295 CNS): > 100 µM
- TGI (K-562 leukemia): > 100 µM
- TGI (HL-60(TB) leukemia): > 100 µM
- TGI (NCI-H522 lung): > 100 µM
- TGI (NCI-H460 lung): > 100 µM
- TGI (MOLT-4 leukemia): > 100 µM

Compound: CC#CC1C(OC(=O)c2ccccc2)CCCC1(CI)N=[N+]=[N-] (stereo not drawn)
- TGI (COLO 205 colon): > 100 µM
- TGI (SF-295 CNS): > 100 µM
- TGI (K-562 leukemia): > 100 µM
- TGI (HL-60(TB) leukemia): 42.2 µM
- TGI (NCI-H522 lung): 63.8 µM
- TGI (NCI-H460 lung): > 100 µM
- TGI (RPMI-8226 leukemia): 86.2 µM
- TGI (MOLT-4 leukemia): 44.4 µM

Compound: C=CCC(OCCOCC)c1cc(OCCOCC)ccc1OC (stereo not drawn)
- TGI (COLO 205 colon): > 100 µM
- TGI (SF-295 CNS): > 100 µM
- TGI (K-562 leukemia): > 100 µM
- TGI (HL-60(TB) leukemia): > 100 µM
- TGI (NCI-H522 lung): > 100 µM
- TGI (NCI-H460 lung): > 100 µM
- TGI (RPMI-8226 leukemia): > 100 µM
- TGI (MOLT-4 leukemia): > 100 µM

Compound: O=C1NC2C=CN(Cc3ccccc3)C=C2C(=O)N2CCCC12 (stereo not drawn)
- TGI (COLO 205 colon): > 100 µM
- TGI (SF-295 CNS): > 100 µM
- TGI (HL-60(TB) leukemia): > 100 µM
- TGI (NCI-H522 lung): > 100 µM
- TGI (NCI-H460 lung): > 100 µM
- TGI (MOLT-4 leukemia): > 100 µM

Compound: O=C(Nc1nc(=S)c2c(ncn2CCO)[nH]1)c1ccccc1
- TGI (COLO 205 colon): > 100 µM
- TGI (SF-295 CNS): > 100 µM
- TGI (K-562 leukemia): > 100 µM
- TGI (HL-60(TB) leukemia): > 100 µM
- TGI (NCI-H522 lung): > 100 µM
- TGI (NCI-H460 lung): > 100 µM
- TGI (RPMI-8226 leukemia): > 100 µM

Compound: N#Cc1cc([N+](=O)[O-])ccc1NC(=O)/C(=N/N)C(C(=O)c1ccc(Cl)c(Cl)c1)C1OC(=O)c2ccccc21 (stereo not drawn)
- TGI (COLO 205 colon): > 100 µM
- TGI (SF-295 CNS): > 100 µM
- TGI (K-562 leukemia): > 100 µM
- TGI (NCI-H522 lung): > 100 µM
- TGI (NCI-H460 lung): > 100 µM
- TGI (RPMI-8226 leukemia): > 100 µM
- TGI (MOLT-4 leukemia): > 100 µM

Compound: C=CC1C(OC2OC(CO)C(O)C(O)C2O)OC=C(C(=O)OC)C1CC=O (stereo not drawn)
- TGI (COLO 205 colon): > 100 µM
- TGI (SF-295 CNS): > 100 µM
- TGI (K-562 leukemia): > 100 µM
- TGI (HL-60(TB) leukemia): > 100 µM
- TGI (RPMI-8226 leukemia): > 100 µM
- TGI (MOLT-4 leukemia): > 100 µM

Compound: C[C@@H](NC1CCC[C@H]1O)c1ccccc1 (stereo partly drawn)
- TGI (COLO 205 colon): > 100 µM
- TGI (SF-295 CNS): > 100 µM
- TGI (K-562 leukemia): > 100 µM
- TGI (HL-60(TB) leukemia): > 100 µM
- TGI (NCI-H460 lung): > 100 µM
- TGI (RPMI-8226 leukemia): > 100 µM
- TGI (MOLT-4 leukemia): > 100 µM

Compound: COc1cc(C)c(O)c(C(=O)O)c1
- TGI (COLO 205 colon): > 100 µM
- TGI (SF-295 CNS): > 100 µM
- TGI (K-562 leukemia): > 100 µM
- TGI (NCI-H522 lung): > 100 µM
- TGI (NCI-H460 lung): > 100 µM
- TGI (MOLT-4 leukemia): > 100 µM

Compound: COC(=O)C1=C(O)c2cc3c(cc2[C@H](c2cc(OC)c(OC)c(OC)c2)C1C(=O)OC)OCO3 (stereo partly drawn)
- TGI (COLO 205 colon): 45.7 µM
- TGI (SF-295 CNS): > 100 µM
- TGI (K-562 leukemia): > 100 µM
- TGI (HL-60(TB) leukemia): > 100 µM
- TGI (NCI-H460 lung): > 100 µM
- TGI (RPMI-8226 leukemia): > 100 µM
- TGI (MOLT-4 leukemia): > 100 µM
